Measurements from patent US20230174649A1, “PHARMACEUTICAL COMPOSITIONS CONTAINING ANTI-CD47 ANTIBODIES” (I-MAB BIOPHARMA US LIMITED, priority 2020, published 2023).
Where “and” joins values, the source holds several entries; their conditions need not be identical. Equal entries are not always repeated.

Key:
Format in all cases: cell-based, Human
macrophages = assay: Macrophage Viability Assay (CellTiter-Glo); conditions: for Macrophage viability (CellTiter-Glo Luminescent Cell Viability Assay): 16 hours, three replicate lines
Experimental: Then, the monocytes isolated by MACS were subsequently cultured in fresh complete medium supplemented with recombinant human granulocyte-macrophage colony-stimulating factor GM-CSF (50 ng/ml) and human recombinant IL-4 (35 ng/ml) to activate differentiated macrophages. After 6 days of culture (on day 7), cells were harvested, pooled together and counted for next use.
The cells from Example 2 were plated into a 96-well flat bottom plate at a density of 0.05×10^6 cells/well. After 2 hours of incubation, the macrophages were well attached to the plate. Then selected small molecule therapeutic agents were added to the well and cocultured for 16 hours. On day 8, macrophage viability was assessed by CellTiter-Glo® Luminescent Cell Viability Assay, according to the manufacture's instruction.

CD47 = assay: FACS analysis of expression level of CD47 on tumor cell surface; conditions: Toledo cells; for Mean Fluorescence Intensity (MFI) CD47: 12 hours
Experimental: (§1) For FACS analysis, on the day of analysis (day 1), Toledo cells were seeded into 96 well plate and cultured at a density of 0.2×10^6 cells/well. Then the cells were treated with the selected small molecule therapeutic agents for 12 hours.
(§2) On day 2, cells were harvested, washed twice and then re-suspended in 100 uL FACS buffer subject to FACS analysis. For detection of the expression of calreticulin and CD47, cells were incubated with anti-calreticulin antibody and commercially available anti-CD47 antibody (BD Biosciences, Catalog number: 561249) in dark at 4° C. for 30 mins.
(§3) Then, the cells were subject to FACS analysis. Data was acquired and analyzed.

Calreticulin = assay: FACS analysis of expression level of calreticulin on tumor cell surface; conditions: Toledo cells; for Mean Fluorescence Intensity (MFI) Calreticulin: 12 hours
Experimental: as §1, §2, §3

Toledo Cells = assay: FACS-based phagocytosis assay, macrophages cocultured with Toledo cells
Experimental: FACS-based phagocytosis assays were performed to evaluate the phagocytic abilities of macrophages.
Toledo Cells (a tumor cell line, as a target) were labelled with CellTrace™ Far Red and plated into 96-well plate at a density of 0.15×10^6 cells/well for 12 hours. The Macrophages were prepared as discussed above and then labelled with CellTrace Violet. Next, the macrophages were added into the plate as an effector at an effector:target (Toledo) ratio of 1:3, giving a final density of macrophages at 0.05×10^6 cells/well. Macrophages and tumor cells were cocultured for 2-6 h at 37° C. in the presence of the indicated treatments (small molecule therapeutic agents, CD47 antibody, CD20 antibody or combinations). The incubation time depending on the phagocytosis rate, expecting phagocytosis of 5-20% cells.
Then, cells were acquired and data were analyzed.

For `CC1(C)CCC(CN2CCN(c3ccc(C(=O)NS(=O)(=O)c4ccc(NCC5CCOCC5)c([N+](=O)[O-])c4)c(Oc4cnc5[nH]ccc5c4)c3)CC2)=C(c2ccc(Cl)cc2)C1` [Venetoclax], the “Macrophage viability (CellTiter-Glo Luminescent Cell Viability Assay)” value (“Macrophage viability” for short) (macrophages; Cpd 0.002 uM) was 5968 and 6024 and 5856, the “Macrophage viability” value (macrophages; Cpd 0.008 uM) was 6148 and 6172 and 5912 and the “Macrophage viability” value (macrophages; Cpd 0.04 uM) was 6288 and 6072 and 6264. The “Macrophage viability” value (macrophages; Cpd 0.2 uM) was 7260 and 6072 and 5756, the “Macrophage viability” value (macrophages; Cpd 1 uM) was 6052 and 6020 and 6088 and the “Macrophage viability” value (macrophages; Cpd 5 uM) was 5760 and 5660 and 6120. For the same molecule, the “Macrophage viability” value (macrophages; Cpd 25 uM) was 4696 and 4596 and 4776, the “Macrophage viability” value (macrophages; Cpd 50 uM) was 1240 and 1132 and 1108 and the “toxicity to macrophages” value (macrophages; dose as high as 50 μM) was “showed toxicity”. For the same molecule, the “toxicity to macrophages” value (macrophages; dose lower than 10 μM) was “little toxic”, the “Mean Fluorescence Intensity (MFI) CD47” value (CD47; 0.008 uM) was 7873 and the “Mean Fluorescence Intensity (MFI) CD47” value (CD47; 0.04 uM) was 6201. For the same molecule, the “Mean Fluorescence Intensity (MFI) CD47” value (CD47; 0.2 uM) was 5206, the “Mean Fluorescence Intensity (MFI) CD47” value (CD47; 1 uM) was 4232 and the “Mean Fluorescence Intensity (MFI) CD47” value (CD47; 5 uM) was 3540. For the same molecule, the “inhibition of CD47 expression” value (CD47; dose of 5 μM) was roughly 50%, the “Mean Fluorescence Intensity (MFI) Calreticulin” value (Calreticulin; 0.008 uM) was 117 and the “Mean Fluorescence Intensity (MFI) Calreticulin” value (Calreticulin; 0.04 uM) was 258. The “Mean Fluorescence Intensity (MFI) Calreticulin” value (Calreticulin; 0.2 uM) was 471, the “Mean Fluorescence Intensity (MFI) Calreticulin” value (Calreticulin; 1 uM) was 1123 and the “Mean Fluorescence Intensity (MFI) Calreticulin” value (Calreticulin; 5 uM) was 2533. For the same molecule, the “increase of the expression level of calreticulin” value (Calreticulin; dose of 5 μM) was roughly 120 folds, the “macrophage phagocytosis (untreated = 1.00)” value (“macrophage phagocytosis” for short) (Toledo Cells; Cpd 0.0016 uM, T4J = 0, R = 0) was 1.00 and the “macrophage phagocytosis” value (Toledo Cells; Cpd 0.0016 uM, T4J = 0, R = 0.01 ug/ml) was 1.45. The “macrophage phagocytosis” value (Toledo Cells; Cpd 0.0016 uM, T4J = 0.1 ug/ml, R = 0) was 2.62, the “macrophage phagocytosis” value (Toledo Cells; Cpd 0.0016 uM, T4J = 0.1 ug/ml, R = 0.01 ug/ml) was 3.23 and the “macrophage phagocytosis” value (Toledo Cells; Cpd 0.008 uM, T4J = 0, R = 0) was 1.10. The “macrophage phagocytosis” value (Toledo Cells; Cpd 0.008 uM, T4J = 0, R = 0.01 ug/ml) was 1.54, the “macrophage phagocytosis” value (Toledo Cells; Cpd 0.008 uM, T4J = 0.1 ug/ml, R = 0) was 2.59 and the “macrophage phagocytosis” value (Toledo Cells; Cpd 0.008 uM, T4J = 0.1 ug/ml, R = 0.01 ug/ml) was 3.30. For the same molecule, the “macrophage phagocytosis” value (Toledo Cells; Cpd 0.04 uM, T4J = 0, R = 0) was 1.17, the “macrophage phagocytosis” value (Toledo Cells; Cpd 0.04 uM, T4J = 0, R = 0.01 ug/ml) was 1.82 and the “macrophage phagocytosis” value (Toledo Cells; Cpd 0.04 uM, T4J = 0.1 ug/ml, R = 0) was 2.64. The “macrophage phagocytosis” value (Toledo Cells; Cpd 0.04 uM, T4J = 0.1 ug/ml, R = 0.01 ug/ml) was 3.37, the “macrophage phagocytosis” value (Toledo Cells; Cpd 0.2 uM, T4J = 0, R = 0) was 1.41 and the “macrophage phagocytosis” value (Toledo Cells; Cpd 0.2 uM, T4J = 0, R = 0.01 ug/ml) was 1.93. The “macrophage phagocytosis” value (Toledo Cells; Cpd 0.2 uM, T4J = 0.1 ug/ml, R = 0) was 2.81, the “macrophage phagocytosis” value (Toledo Cells; Cpd 0.2 uM, T4J = 0.1 ug/ml, R = 0.01 ug/ml) was 3.64 and the “macrophage phagocytosis” value (Toledo Cells; Cpd 1 uM, T4J = 0, R = 0) was 1.56. The “macrophage phagocytosis” value (Toledo Cells; Cpd 1 uM, T4J = 0, R = 0.01 ug/ml) was 2.03, the “macrophage phagocytosis” value (Toledo Cells; Cpd 1 uM, T4J = 0.1 ug/ml, R = 0) was 2.91 and the “macrophage phagocytosis” value (Toledo Cells; Cpd 1 uM, T4J = 0.1 ug/ml, R = 0.01 ug/ml) was 3.65.
